Reference: patent US9956181B2, “Composition of nanoformulated lycopene and method of using the composition” (priority 2015, dated 2018)

How the values were obtained:
[1] = system: ovariectomized (OVX) rats; assay: OVX rat study: body weight, uterine weight, body composition by DXA, organ findings; assay type: in vivo, Wistar rats; conditions: 12 weeks; for decrease in fat mass (body composition by DXA): higher dosages of lycopene
Description: (§1) A total of 264 Wistar female rats, ˜6 months old, were supplied by the Animal House at King Fahd Medical Research Center (KFMRC), KAU. Rats were housed in individual cages and maintained at 22° C. with a 12-h light/dark cycle. During the study period, rats were given standard rodent chow diet ad libitum (commercial rat cubes containing approximately 18% protein, 3% fat, 77% carbohydrate, and 2% of an inorganic-salt mixture with a vitamin supplement by weight, supplied by Grain Silos and Flour Mills Organization, Jeddah, Saudi Arabia) and water until the onset of intervention. Prior to surgery, rats were anesthetized with ketamine [(10% ketamine hydrochloride (80 mg/kg body weight), Cayman Chemical, Michigan, USA] and xylazine [(2% xylazine hydrochloride, 10 mg/kg body weight), Sigma-Aldrich Co., St. Louis, USA]. A single longitudinal skin incision was made on the dorsal midline at the level of the kidneys and both ovaries were ligated and removed to produce an ovariectomy in all OVX group animals. A SHAM-operated group, acting as a negative control for the effect of ovariectomy on bone parameters, underwent bilateral laparotomy, during which the ovaries were exposed but remained intact. […] The lycopene-supplemented groups were given lycopene (15, 30 and 45 mg/kg body weight per day) dissolved in corn oil by daily intra-gastric administration for the experimental period of 12 weeks. The SHAM, OVX and ALN control groups were given the same volume of corn oil without lycopene treatment. […] A 12-week randomized placebo-controlled study in order to examine the protective effects of lycopene supplementation on bone mass and fragility in OVX rats was concluded. Prior to surgery, body weight and bone mineral density (BMD) were obtained for all animals. Rats were randomized using a computer-generated randomization code into one of six groups: (1) sham-operated (SHAM; n=44); (2) ovariectomized control (OVX; n=44); (3) OVX lycopene-supplemented (15 mg/kg body weight per day) (n=44); (4) OVX lycopene-supplemented (30 mg/kg body weight per day) (n=44); (5) OVX lycopene-supplemented (45 mg/kg body weight per day) (n=44) and (6) OVX alendronate-treated (ALN) [2.0 μg/kg body weight per day subcutaneously (sc)] (n=44). Alendronate is an anti-resorptive agent for the treatment of osteoporosis and was used as a positive therapy control. […] All OVX groups were pair-fed with the SHAM group throughout the study to avoid the possible effects of ovariectomy-induced over-consumption and subsequent excessive weight gain. Treatment started 1 week after the surgery: this period of rest allowed the rats to recover from the stress associated with the surgery. In addition, after surgery, rats were administered Diclofenac sodium injection (20 mg/Kg body weight) to reduce the pain associated with the surgery. Rats were weighed and examined daily. Blood and urine samples were collected at baseline, during, and at the end of treatment for measurement of various BTMs and other analytes. In vivo dual energy x-ray absorptiometry (DXA) measurements were made for the bone mineral content (BMC) and BMD of the whole body, lumbar spine (L1-L4), and the right humerus, together with body composition at 12 weeks of treatment. One day following the post-test DXA assessments (at 12 weeks, 16 rats in each group), animals were euthanized by decapitation and right and left femurs were extracted for further biomechanical and histomorphometric analyses. Blood and urine samples were collected from all experimental groups to measure biochemical analytes and BTMs at baseline and 4, 8, and 12 weeks of treatment. Peripheral Quantitative CT (pQCT) scans were made of the proximal tibia metaphysis and the diaphysis. In vivo micro-computed tomographic (μCT) scans of the proximal tibia were obtained during the treatment period to monitor changes in bone mass and microarchitecture. […]

[2] = system: ovariectomized (OVX) rats; assay: OVX rat study: plasma GPx, SOD, CAT activities and urinary 8-OHdG; assay type: in vivo, Wistar rats
Description: Prior to surgery, rats were anesthetized with ketamine [(10% ketamine hydrochloride (80 mg/kg body weight), Cayman Chemical, Michigan, USA] and xylazine [(2% xylazine hydrochloride, 10 mg/kg body weight), Sigma-Aldrich Co., St. Louis, USA]. A single longitudinal skin incision was made on the dorsal midline at the level of the kidneys and both ovaries were ligated and removed to produce an ovariectomy in all OVX group animals. A SHAM-operated group, acting as a negative control for the effect of ovariectomy on bone parameters, underwent bilateral laparotomy, during which the ovaries were exposed but remained intact. […] The lycopene-supplemented groups were given lycopene (15, 30 and 45 mg/kg body weight per day) dissolved in corn oil by daily intra-gastric administration for the experimental period of 12 weeks. The SHAM, OVX and ALN control groups were given the same volume of corn oil without lycopene treatment. […] Prior to surgery, body weight and bone mineral density (BMD) were obtained for all animals. […] Alendronate is an anti-resorptive agent for the treatment of osteoporosis and was used as a positive therapy control. […] All OVX groups were pair-fed with the SHAM group throughout the study to avoid the possible effects of ovariectomy-induced over-consumption and subsequent excessive weight gain. Treatment started 1 week after the surgery: this period of rest allowed the rats to recover from the stress associated with the surgery. In addition, after surgery, rats were administered Diclofenac sodium injection (20 mg/Kg body weight) to reduce the pain associated with the surgery. Rats were weighed and examined daily. Blood and urine samples were collected at baseline, during, and at the end of treatment for measurement of various BTMs and other analytes. […] Blood and urine samples were collected from all experimental groups to measure biochemical analytes and BTMs at baseline and 4, 8, and 12 weeks of treatment.

[3] = system: ovariectomized (OVX) rats; assay: OVX rat study: biochemical bone turnover markers; assay type: in vivo, Wistar rats
Description: as §1, with “In addition, after surgery, rats were administered Diclofenac sodium injection (20 mg/Kg body weight) to reduce the pain associated with the surgery. Rats were weighed and examined daily. Blood and urine samples were collected at baseline, during, and at the end of treatment for measurement of various BTMs and other analytes. In vivo dual energy x-ray absorptiometry (DXA) measurements were made for the bone mineral content (BMC) and BMD of the whole body, lumbar spine (L1-L4), and the right humerus, together with body composition at 12 weeks of treatment. One day following the post-test DXA assessments (at 12 weeks, 16 rats in each group), animals were euthanized by decapitation and right and left femurs were extracted for further biomechanical and histomorphometric analyses. Blood and urine samples were collected from all experimental groups to measure biochemical analytes and BTMs at baseline and 4, 8, and 12 weeks of treatment.” left out, “diaphysis.” for “diaphysis. In vivo micro-computed tomographic (μCT) scans of the proximal tibia were obtained during the treatment period to monitor changes in bone mass and microarchitecture.”

[4] = system: ovariectomized (OVX) rats; assay: OVX rat study: in vivo pQCT densitometry of tibia metaphysis; parameters: species or system Wistar rats; conditions: 12 weeks, versus OVX control, P<0.001
Description: A total of 264 Wistar female rats, ˜6 months old, were supplied by the Animal House at King Fahd Medical Research Center (KFMRC), KAU. Rats were housed in individual cages and maintained at 22° C. with a 12-h light/dark cycle. During the study period, rats were given standard rodent chow diet ad libitum (commercial rat cubes containing approximately 18% protein, 3% fat, 77% carbohydrate, and 2% of an inorganic-salt mixture with a vitamin supplement by weight, supplied by Grain Silos and Flour Mills Organization, Jeddah, Saudi Arabia) and water until the onset of intervention. Prior to surgery, rats were anesthetized with ketamine [(10% ketamine hydrochloride (80 mg/kg body weight), Cayman Chemical, Michigan, USA] and xylazine [(2% xylazine hydrochloride, 10 mg/kg body weight), Sigma-Aldrich Co., St. Louis, USA]. A single longitudinal skin incision was made on the dorsal midline at the level of the kidneys and both ovaries were ligated and removed to produce an ovariectomy in all OVX group animals. A SHAM-operated group, acting as a negative control for the effect of ovariectomy on bone parameters, underwent bilateral laparotomy, during which the ovaries were exposed but remained intact. […] Peripheral Quantitative CT (pQCT) scans were made of the proximal tibia metaphysis and the diaphysis. […]

CC(C)=CCC/C(C)=C/C=C/C(C)=C/C=C/C(C)=C/C=C/C=C(C)/C=C/C=C(C)/C=C/C=C(\C)CCC=C(C)C [lycopene]
decrease in fat mass (body composition by DXA) ([1]; OVX rats, first value (presumably 30 mg/kg/day)): 8.9% | decrease in fat mass (body composition by DXA) ([1]; OVX rats, second value (presumably 45 mg/kg/day)): 16.4% | final body weight, body weight gain, or food intake ([1]; OVX rats, lycopene 15, 30, 45 mg/kg/day oral): did not significantly influence | uterine weight compared to OVX alone ([1]; OVX rats, lycopene 30 and 45 mg/kg body weight per day): significantly increased | OVX-induced body weight gain and fat accumulation ([1]; OVX rats, lycopene treatment): prevented | degeneration or hypertrophy of internal organs, including muscle and bone ([1]; lycopene-treated OVX rats): No degeneration or hypertrophy | plasma GPx, CAT and SOD activities ([2]; after lycopene treatment): increased | increase in plasma GPx activity compared to the OVX control ([2]; lycopene 15-45 mg/kg/day, P<0.001): 30.6-57.2% | urinary 8-OHdG levels ([2]; lycopene, dose-dependent manner, P<0.001): significantly decreased | s-CTX and u-DPD levels compared to OVX control ([3]; lycopene 30 and 45 mg/kg per day, P<0.001): significantly decreased | s-OC and s-PINP levels compared with OVX control ([3]; lycopene 30 or 45 mg/kg per day, weeks 8 and 12, P<0.001): significant decreases | OVX-induced bone loss (total and trabecular BMD, proximal tibia, pQCT) [4]: significantly prevented
